Conditions: following topical spray
Protocol: Each cohort began with single dose administration of study drug on Day 1 of the cohort's study schedule.
For single dose PK analysis, serial blood samples were collected following the Day 1 dose at the following time points: 0 (pre-dose), 0.25, 0.5, 0.75, 1, 1.5, 2, 2.5, 3, 4, 5, 6, 8, 10, 12, 18, 24, 48, 72, 96 and 120 hours post-dose. For multiple-dose PK analysis, serial blood samples were collected following the last morning dose on Day 12 according to the same schedule used for the single-dose PK analysis. In addition, daily trough PK samples were collected prior to the morning dose on Days 7 through 11.

In the case of CCN(CC)CCOC(=O)c1ccccc1OC(C)=O.Cl [Compound-1], the “converted to salicylic acid” value is reported as at least 99%.
